Patent EP0936218B1, “BENZIMIDAZOLE DERIVATIVES” (MOCHIDA PHARMACEUTICAL CO., LTD., priority 1996, dated 1998)

Columns and labels:
[1] = test system: intraperitoneal eosinophilia; assay: Action on intraperitoneal eosinophilia model mice (sensitized with swine roundworm extract); assay type: in vivo, BALB/c male mice; settings: oral, once a day, 10 times, BALB/c mice
Procedure: Using five animals per group of BALB/c male mice (about 25 g in body weight), 0.11 mL of physiological saline containing 0.1 mg of swine roundworm extract was administered into the peritoneal cavity of each mouse to sensitize. The same treatment was repeated 7 days after the administration and, 3 days thereafter, each animal was sacrificed by phlebotomy, 3 mL of physiological saline containing 1% dipotassium ethylenediaminetetraacetate (EDTA) was administered by intraperitoneal injection and its abdominal region was massaged for about 30 seconds. The abdominal region was incised to collect intraperitoneal fluid which was subsequently centrifuged at 130 x g for 10 minutes, and the resulting precipitate was mixed with 500 µl of fetal calf serum containing 1% EDTA to prepare a cell suspension. A portion of the cell suspension was daubed on a slide glass using a spinner to carry out Diff-Quik staining, and then total leukocytes and eosinophils were counted to calculate the ratio of eosinophils in the total leukocytes. The number of total leukocytes in the cell suspension was measured using an automatic blood cell counter. The number of eosinophils in the cell suspension was calculated by multiplying the ratio of eosinophils in the total leukocytes by the number of total leukocytes.
Each of the compounds to be tested was suspended in 5% acacia aqueous solution and orally administered once a day for a total of 10 times starting immediately after the initial sensitization (test compound-administered group). Also, 5% acacia aqueous solution was orally administered to a group of mice in which sensitization and administration of test compounds were not carried out (non-treated group) and another group of mice in which sensitization was carried out but test compounds were not administered (control group).
The dose of each compound to be tested and the intraperitoneal eosinophilia inhibition rate calculated by the following formula are shown in Table 1. Eosinophilia inhibition rate (%) = {1 - (test compound- administered group - non-treated group)/(control group - non- treated group)} x 100 [formula]

[2] = test system: BALB/c male mice; settings: mouse, in vivo, po, 100 mg/kg/day
Excerpt: Toxicity of compounds of the present invention was examined.

Compound	mortal case [2]	Intraperitoneal eosinophilia inhibition rate (%) ([1]; dose 10 mg/kg/day)	also measured
O=C(O)CC(=O)c1cccc2nc(CCc3ccccc3)[nH]c12 [Example 1, 3-(2-(2-phenylethyl)benzimidazol-4-yl)-3-oxopropanoic acid]	no mortal case was found		Intraperitoneal eosinophilia inhibition rate (%) ([1]; dose 3 mg/kg/day): 67%; Intraperitoneal eosinophilia inhibition rate (%) ([1]; dose 30 mg/kg/day): 78%
COC(=O)CC(O)c1cccc2nc(CCc3ccccc3)[nH]c12 (stereo not drawn) [Example 5, methyl 3-(2-(2-phenylethyl)benzimidazol-4-yl)-3-hydroxypropanoate]	no mortal case was found		Intraperitoneal eosinophilia inhibition rate (%) ([1]; dose 100 mg/kg/day): 62%
O=C(O)CC(O)c1cccc2nc(CCc3ccccc3)[nH]c12 (stereo not drawn) [Example 7, 3-(2-(2-phenylethyl)benzimidazol-4-yl)-3-hydroxypropanoic acid]	no mortal case was found		Intraperitoneal eosinophilia inhibition rate (%) ([1]; dose 0.3 mg/kg/day): 55%
CCOC(=O)CC(O)c1cccc2nc(CCc3ccccc3)[nH]c12 (stereo not drawn) [Example 6, ethyl 3-(2-(2-phenylethyl)benzimidazol-4-yl)-3-hydroxypropanoate]		59%	Intraperitoneal eosinophilia inhibition rate (%) ([1]; dose 3 mg/kg/day): 35%
COC(=O)CC(=O)c1cccc2nc(CCc3ccccc3)[nH]c12 [Example 2, methyl 3-(2-(2-phenylethyl)benzimidazol-4-yl)-3-oxopropanoate]	no mortal case was found		Intraperitoneal eosinophilia inhibition rate (%) ([1]; dose 100 mg/kg/day): 42%
CCOC(=O)CC(=O)c1cccc2nc(CCc3ccccc3)[nH]c12 [Example 3, ethyl 3-(2-(2-phenylethyl)benzimidazol-4-yl)-3-oxopropanoate]		67%	Intraperitoneal eosinophilia inhibition rate (%) ([1]; dose 30 mg/kg/day): 75%
CC(=O)OCC(=O)[C@@]1(O)CC[C@H]2[C@@H]3CCC4=CC(=O)C=C[C@]4(C)[C@H]3[C@@H](O)C[C@@]21C [Prednisolone acetate, 11β,17α,21-trihydroxypregna-1,4-diene-3,20-dione 21-acetate, reference compound]		61 - 85%	
CCOC(=O)CC(=O)c1cccc2c1nc(CCc1ccccc1)n2C [Example 10, ethyl 3-(1-methyl-2-(2-phenylethyl)benzimidazol-4-yl)-3-oxopropanoate]	no mortal case was found		
